In patent US20100267561A1, “HERBICIDAL PYRIDAZINONE DERIVATIVES” (priority 2007, published 2010):

Assays:
Format in all cases: in vivo
[1] = system: wheat (Triticum aestivum); assay: Test A pre-/postemergence plant response
Procedure, shortened: (§1)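 Seeds in loam soil/sand blend treated preemergence by directed soil spray, with simultaneous postemergence spray on 2–10 cm plants at one- to two-leaf stage; compounds in non-phytotoxic solvent with surfactant. Injury visually rated versus untreated controls after about 10 days in greenhouse, 0 (no effect) to 100 (complete control).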

[2] = system: barnyardgrass (Echinochloa crus-galli); assay: Test A pre-/postemergence plant response
Procedure, shortened: as §1

[3] = system: giant foxtail (Setaria faberi); assay: Test A pre-/postemergence plant response
Procedure, shortened: as §1

[4] = system: velvetleaf (Abutilon theophrasti); assay: Test A pre-/postemergence plant response
Procedure, shortened: as §1

[5] = system: pigweed (Amaranthus retroflexus); assay: Test A pre-/postemergence plant response
Procedure, shortened: as §1

[6] = system: morningglory (Ipomoea coccinea); assay: Test A pre-/postemergence plant response
Procedure, shortened: as §1

[7] = system: large crabgrass (Digitaria sanguinalis); assay: Test A pre-/postemergence plant response
Procedure, shortened: as §1

[8] = system: corn (Zea mays); assay: Test A pre-/postemergence plant response
Procedure, shortened: as §1

[9] = system: catchweed bedstraw (Galium aparine); assay: Test B pre-/postemergence plant response; settings: Preemergence
Source text: (§2) Seeds of plant species selected from blackgrass (Alopecurus myosuroides), downy bromegrass (Bromus tectorum), green foxtail (Setaria viridis), Italian ryegrass (Lolium multiflorum), wheat (Triticum aestivum), wild oat (Avena fatua), catchweed bedstraw (Galium aparine), bermudagrass (Cynodon dactylon), surinam grass (Brachiaria decumbens), cocklebur (Xanthium strumarium), corn (Zea mays), large crabgrass (Digitaria sanguinalis), woolly cupgrass (Eriochloa villosa), giant foxtail (Setaria faberii), goosegrass (Eleusine indica), johnsongrass (Sorghum halepense), kochia (Kochia scoparia), lambsquarters (Chenopodium album), morningglory (Ipomoea coccinea), eastern black (E.B.) nightshade (Solanum ptycanthum), yellow nutsedge (Cyperus esculentus), pigweed (Amaranthus retroflexus), common ragweed (Ambrosia elation), Russian thistle (Salsola iberica), soybean (Glycine max), common (oilseed) sunflower (Helianthus annuus), and velvetleaf (Abutilon theophrasti) were planted and treated preemergence with test chemicals formulated in a non-phytotoxic solvent mixture which included a surfactant.
(§3) At the same time, plants selected from these crop and weed species and also winter barley (Hordeum vulgare), canarygrass (Phalaris minor), chickweed (Stellaria media) and windgrass (Apera spica-venti) were treated with postemergence applications of some of the test chemicals formulated in the same manner. Plants ranged in height from 2 to 18 cm (1- to 4-leaf stage) for postemergence treatments.
(§4) Plant species in the flooded paddy test consisted of rice (Oryza sativa), umbrella sedge (Cyperus difformis), ducksalad (Heteranthera limosa) and barnyardgrass (Echinochloa crus-galli) grown to the 2-leaf stage for testing. At time of treatment, test pots were flooded to 3 cm above the soil surface, treated by application of test compounds directly to the paddy water, and then maintained at that water depth for the duration of the test. Treated plants and controls were maintained in a greenhouse for 13 to 15 days, after which time all species were compared to controls and visually evaluated. Plant response ratings, summarized in Table B, are based on a scale of 0 to 100 where 0 is no effect and 100 is complete control. A dash (-) response means no test result.

[10] = system: blackgrass (Alopecurus myosuroides); assay: Test B pre-/postemergence plant response
Source text: as §2, §3, §4

[11] = system: yellow nutsedge (Cyperus esculentus); assay: Test B pre-/postemergence plant response; settings: for Nutsedge, Yellow plant response rating: 8 g ai/ha
Source text: as §2, §3, §4

[12] = Postemergence, 31 g ai/ha, 0 to 100 scale (0 no effect, 100 complete control)
[13] = Postemergence, 125 g ai/ha, 0 to 100 scale, 0 no effect, 100 complete control
[14] = Preemergence, 31 g ai/ha, 0 to 100 scale, 0 is no effect, 100 is complete control
[15] = Preemergence, 125 g ai/ha, 0 to 100 scale (0 no effect, 100 complete control)
[16] = 31 g ai/ha, 0 to 100 scale, 0 no effect, 100 complete control
[17] = Postemergence, 16 g ai/ha, scale 0 to 100
[18] = Postemergence, 31 g ai/ha, scale 0 to 100, 0 no effect, 100 complete control
[19] = Postemergence, 62 g ai/ha, scale 0 to 100, 0 no effect, 100 complete control
[20] = Preemergence, 16 g ai/ha, scale 0 to 100 (0 no effect, 100 complete control)
[21] = Preemergence, 31 g ai/ha, 0 to 100 scale, 0 no effect, 100 complete control
[22] = Preemergence, 62 g ai/ha, scale 0 to 100
[23] = Postemergence, 500 g ai/ha, 0 to 100 scale, 0 no effect, 100 complete control
[24] = Preemergence, 500 g ai/ha, 0 to 100 scale (0 no effect, 100 complete control)
[25] = Postemergence, 62 g ai/ha, scale 0 to 100
[26] = Postemergence, 125 g ai/ha, scale 0 to 100
[27] = Postemergence, 250 g ai/ha, scale 0 to 100
[28] = Preemergence, 125 g ai/ha, scale 0 to 100

CCc1cc(-c2ccc(Cl)cc2)nn1-c1c(OC(=O)OC(C)C)cnn(C)c1=O [Compound 41]
Plant response rating, Wheat [1, 12]: 60
Plant response rating, Wheat [1, 13]: 70
Plant response rating, Wheat [1, 14]: 50
Plant response rating, Wheat [1, 15]: 80
Plant response rating, Barnyardgrass [2, 12]: 80
Plant response rating, Barnyardgrass [2, 13]: 100
Plant response rating, Barnyardgrass [2, 14]: 100
Plant response rating, Barnyardgrass [2, 15]: 100
Plant response rating, Foxtail, Giant [3, 12]: 70
Plant response rating, Foxtail, Giant [3, 13]: 90
Plant response rating, Foxtail, Giant [3, 14]: 90
Plant response rating, Foxtail, Giant [3, 15]: 100
Plant response rating, Velvetleaf [4, 12]: 0
Plant response rating, Velvetleaf [4, 13]: 0
Plant response rating, Velvetleaf [4, 14]: 0
Plant response rating, Velvetleaf [4, 15]: 0
Plant response rating, Pigweed [5, 12]: 0
Plant response rating, Pigweed [5, 13]: 0
Plant response rating, Pigweed [5, 14]: 0
Plant response rating, Pigweed [5, 15]: 0
Plant response rating, Morningglory [6, 12]: 0
Plant response rating, Morningglory [6, 13]: 0
Plant response rating, Morningglory [6, 14]: 0
Plant response rating, Morningglory [6, 15]: 0
Plant response rating, Crabgrass, Large [7, 12]: 20
Plant response rating, Crabgrass, Large [7, 13]: 90
Plant response rating, Crabgrass, Large [7, 14]: 80
Plant response rating, Crabgrass, Large [7, 15]: 100
Plant response rating, Corn [8, 12]: 60
Plant response rating, Corn [8, 13]: 90
Plant response rating, Corn [8, 14]: 30
Plant response rating, Corn [8, 15]: 90
Plant response rating, Galium ([9]; 16 g ai/ha, scale 0 to 100 (0 no effect, 100 complete control)): 0
Plant response rating, Galium [9, 16]: 50
Plant response rating, Galium ([9]; 62 g ai/ha, scale 0 to 100): 100
Galium plant response rating ([9]; 8 g ai/ha, scale 0 to 100): 0
Blackgrass plant response rating ([10]; 8 g ai/ha, postemergence, 0-100 scale): 85
Plant response rating, Blackgrass [10, 17]: 90
Plant response rating, Blackgrass [10, 18]: 95
Plant response rating, Blackgrass [10, 19]: 95
Plant response rating, Blackgrass [10, 20]: 100
Plant response rating, Blackgrass [10, 21]: 100
Plant response rating, Blackgrass [10, 22]: 100
Blackgrass plant response rating ([10]; Preemergence, 8 g ai/ha, scale 0 to 100): 95
Nutsedge, Yellow plant response rating ([11]; postemergence, 0-100 scale): 0
Plant response rating, Nutsedge, Yellow [11, 17]: 0
Plant response rating, Nutsedge, Yellow [11, 18]: 0
Plant response rating, Nutsedge, Yellow [11, 19]: 0
Plant response rating, Nutsedge, Yellow [11, 20]: 0
Plant response rating, Nutsedge, Yellow ([11]; Preemergence, 31 g ai/ha, scale 0 to 100 (0 no effect, 100 complete control)): 0
Plant response rating, Nutsedge, Yellow [11, 22]: 0
Nutsedge, Yellow plant response rating ([11]; Preemergence, scale 0 to 100): 0

Cc1cc(-c2ccc(Br)cc2)nn1-c1c(OC(=O)OC(C)C)cnn(C)c1=O [Compound 6]
Plant response rating, Wheat [1, 13]: 50
Plant response rating, Wheat [1, 23]: 70
Plant response rating, Wheat [1, 15]: 80
Plant response rating, Wheat [1, 24]: 90
Plant response rating, Barnyardgrass [2, 13]: 90
Plant response rating, Barnyardgrass [2, 23]: 100
Plant response rating, Barnyardgrass [2, 15]: 90
Plant response rating, Barnyardgrass [2, 24]: 100
Plant response rating, Foxtail, Giant [3, 13]: 90
Plant response rating, Foxtail, Giant [3, 23]: 90
Plant response rating, Foxtail, Giant [3, 15]: 100
Plant response rating, Foxtail, Giant [3, 24]: 100
Plant response rating, Velvetleaf [4, 13]: 40
Plant response rating, Velvetleaf [4, 23]: 50
Plant response rating, Velvetleaf [4, 15]: 40
Plant response rating, Velvetleaf [4, 24]: 50
Plant response rating, Pigweed [5, 13]: 0
Plant response rating, Pigweed [5, 23]: 30
Plant response rating, Pigweed [5, 15]: 20
Plant response rating, Pigweed [5, 24]: 40
Plant response rating, Morningglory [6, 13]: 30
Plant response rating, Morningglory [6, 23]: 50
Plant response rating, Morningglory [6, 15]: 30
Plant response rating, Morningglory [6, 24]: 40
Plant response rating, Crabgrass, Large [7, 13]: 90
Plant response rating, Crabgrass, Large [7, 23]: 90
Plant response rating, Crabgrass, Large [7, 15]: 100
Plant response rating, Crabgrass, Large [7, 24]: 100
Plant response rating, Corn [8, 13]: 100
Plant response rating, Corn [8, 23]: 100
Plant response rating, Corn [8, 15]: 80
Plant response rating, Corn [8, 24]: 90
Plant response rating, Galium [9, 16]: 0
Plant response rating, Galium ([9]; 125 g ai/ha, scale 0 to 100): 70
Plant response rating, Galium ([9]; 250 g ai/ha, scale 0 to 100): 70
Blackgrass plant response rating ([10]; 250 g ai/ha, preemergence, 0-100 scale): 100
Plant response rating, Blackgrass [10, 18]: 100
Plant response rating, Blackgrass [10, 25]: 100
Plant response rating, Blackgrass [10, 26]: 100
Plant response rating, Blackgrass [10, 27]: 100
Plant response rating, Blackgrass [10, 21]: 80
Plant response rating, Blackgrass [10, 22]: 100
Plant response rating, Blackgrass [10, 28]: 100
Plant response rating, Nutsedge, Yellow [11, 18]: 0
Plant response rating, Nutsedge, Yellow [11, 25]: 0
Plant response rating, Nutsedge, Yellow [11, 26]: 0
Plant response rating, Nutsedge, Yellow [11, 27]: 0
Plant response rating, Nutsedge, Yellow [11, 21]: 0
Plant response rating, Nutsedge, Yellow [11, 22]: 0
Plant response rating, Nutsedge, Yellow [11, 28]: 0
Plant response rating, Nutsedge, Yellow ([11]; Preemergence, 250 g ai/ha, scale 0 to 100): 0
